The subject of this data set is C57BL/6 mice. Nature of the data set: In vivo acute toxicity assay, substance given alone (serum biochemistry, kidney histology). As to the method: Animals. A total of 48 male C57BL/6 mice weighing 25-30 g purchased from the Instituto de Salud Pública (ISP), were used. Animal housing and experiment protocols were approved by the University of Talca in adherence to Conicyt experimental animal administrative regulations. All groups were maintained at a constant temperature (22±1° C.) on a 12-h light/12-h dark cycle (lights-on at 08:00 a.m.) and had free access to food and water.
Animal experimental design. […] Animals were euthanized 48 h later and blood samples were collected from the heart for the assessment of serum urea, creatinine, Lactate Deshidrogenase (LDH), Uric Acid and Calcium
Examination of nephrotoxicity. Mice were anaesthetized with sodium pentobarbitone and blood samples were collected from the heart and the kidneys were removed. Serum levels of urea, creatinine, LDH, Uric Acid and Calcium were determined using commercially available kits according to the protocols provided by Valtek (Valtek Diagnostic, Nuñoa, Chile). Left kidneys were fixed in 10% neutral buffered formaldehyde, embedded in paraffin wax and automatically processed. Sections (3 μm in thickness) of the embedded tissue were stained with hematoxylin-eosin for observation under light microscope.
Statistical analysis. The in vitro data were obtained from at least three independent experiments with three replicates, and all data are expressed as mean±SD. Experimental groups were compared using a one-way analysis of variance (ANOVA) followed by Scheffé's test when the data were normally distributed and by the Kruskal-Wallis test when they were not normally distributed. p-Values <0.05 were considered significant. Statistical tests were performed using GraphPad Prism 5 software, version 5.0 for Mac OS X.

[1] abbreviates: substance alone ip (UO2 5 mg/kg of uranium; G4-Lys-Fmoc-Cbz 16 mg/kg; G5-Cou 40 mg/kg; EDTA 75 mg/kg), serum 48 h.

`CC(=O)O.CC(=O)O.O.O.[O]=[U]=[O]` [UO2^−, UO2(CH3COO)2.2H2O] returned a concentration of creatinine (UO2 alone, 5 mg/kg of uranium ip, serum 48 h) of 1.7±0.5. Besides, under setting [1], the Calcium stood at 8.8 ± 0.57 mg/dL, the Urea came out at 226.3 ± 39.4 mg/dL and the “Uric Acid” value amounted to 2.5 ± 0.39 mg/dL. In addition, for the setting “substance alone ip, 48 h”, the “kidney histology (hematoxylin-eosin)” value is reported as “irreversible damage with necrosis”. For the setting “substance alone ip, serum 48 h”, the “LDH (wide spectre toxicity indicator)” value was “induced a significant increase of the enzyme”.

Source of the values: patent US20150148415A1, “DERIVATIZED DENDRIMER WITH LOW CITOTOXICITY FOR IN VIVO, EX VIVO, IN VITRO OR IN SITU CHELATION OF HEAVY METALS OR ACTINIDES” (priority 2013, published 2015).
